Assay results as given in patent US7422854B1, “Cholesterol reduction signature” (priority 2002, dated 2008).

What was measured:
male Sprague-Dawley rats = assay: Cholesterol Lowering Index: total blood cholesterol (clinical chemistry) in treated versus vehicle-treated rats; assay type: in vivo, rat; details: for Chol index (fold reduction) / Cholesterol Index (fold reduction): male rats; for Chol index (fold reduction): vs vehicle; for reduction in cholesterol: extremes of the twenty treatments of table 1, treated versus untreated rats; for Cholesterol Index (fold reduction): Table 4
Description: Compound dosing was based on the acute dose LD50s recorded in published reference or literature sources. […] The MTD (maximum tolerated dose) was then selected as the dose at which the animals […] 5-10% body weight during the 5-day range finding study. […] In addition, the clinical observations must show no or mild clinical signs during the whole of the range-finding study. At the next highest dose, signs and symptoms of adverse effects and exceeding those of the MTD should be seen to occur. Should these criteria not be met, the range-finding study is repeated using a modified dose range.
(§1) After determination of the MTD and FED for a compound, each compound was dissolved in a vehicle for administration on day 1 of the study (additional daily doses were stored as frozen aliquots from this initial formulation). Each compound was administered to three individual male Sprague-Dawley rats for each of the two doses (MTD and FED) for one of four different times (0.25 day, 1 day, 3 days, and 5 days), yielding a total of up to 24 animals per compound study. Vehicle choice was based on solubility of the compound, effect of food on adsorption, and the vehicles used in the literature reports examined during the FED selection investigations, described above. Generally, the route and vehicle in which the FED was defined are used. When there was a choice of routes and vehicles, oral routes were chosen over injection routes. Many compounds, especially oncolytics, are only administerable intravenously. In such cases, the compound was administered as an intravenous formulation into the tail vein. Orally administered compounds were given dissolved in either water, 1% carboxymethycellulose (CMC) or corn oil. Intravenously and intraperitoneally administered compounds were given in 0.9% saline. Subcutaneously administered compounds were given in corn oil. Animal body weights were determined at 1 day and, where appropriate, at 4 days, before necropsy, and clinical observations were made on a daily basis. Control animals were dosed with vehicle only. Three male animals were used for each dose and time combination used for the compound treatment.
(§2) Tissue harvest and handling: After the allocated treatment time, the tissues from the animals were harvested. […] All the tissues collected were divided to provide samples for histopathological analyses, and the remainder of each tissue was then snap-frozen. […] The following blood constituents were measured: Blood Urea Nitrogen (BUN), Creatinine (CRE), Glucose (GLU), Alanine Transaminase (ALT), Aspartate Aminotrans-ferase (AST), Alkaline Phosphatase (ALP), Total Bilirubin (TBI), Sodium (SOD), Potassium (POT), Chloride (CHL), Phosphorus (PHO), Total Protein (TPR), Albumin (ALB), Cholesterol (CHO), Creatine Phosphokinase (CPK), Lactate Dehydrogenase (LDH), Carbon Dioxide (CO2), Uric Acid (UA), and Lipase. […] The parameters were measured using a Baker 9000 blood cell analysis instrument according to the manufactures instructions. The following blood constituents were measured: Leukocyte count (WBC), Differential Leukocyte counts, Erythrocyte count (RBC), Hemoglobin concentration (HGB), Hematocrit (HCT), Mean Corpuscular Volume (MCV), Mean Corpuscular Hemoglobin (MCH), Mean Corpuscular Hemoglobin Concentration (MCC), Thrombocyte Count (PLC). Histopathology: Histopathological analyses of hematoxylin and eosin-stained tissue sections were performed and peer-reviewed by board-certified (Diplomate, American College of Veterinary Pathologists) veterinary pathologists. Preparation of Enriched mRNA: Punch Biopsies were Taken from the Frozen Tissues and were completely homogenized before being processed using the MagNA Pure robot. (Roche Diagnostics Corp., Indianapolis, Ind.) in combination with the MagNA Pure LC RNA Isolation kit II (Roche Diagnostics Corp).

livers of rats = assay: Signature Projection Score (SPS): match of liver gene expression to the Cholesterol Reduction Signature; assay type: in vivo; details: rat liver, maximum of training treatments = 100
Procedure: as §1
as §2, with “Corp). The amount of lysis buffer was adjusted to allow 1 ml per 50 mg for liver tissue, or 1 ml per 80 mg for all other tissues. After complete homogenization and before loading of the samples into the 32-well MagNA Pure plate, the samples were syringed 5-6 times using a 20-gauge 3-ml syringe to ensure a smooth solution for robotic processing. Tissue sample processing was performed in duplicate wells (loading 150 μl of homogenized sample and 150 μl of additional lysis buffere to each well) of the MagNA Pure LC, which is programmed to extract mRNA using oligo-dT selection technology into a final elution volume of 100 μl. Poly A(+) RNA sample concentration was performed using a standard ethanol precipitation protocol in the presence of glycogen (50 μg/ml).” for “Corp).”

CC[C@H](C)C(=O)O[C@H]1C[C@@H](C)C=C2C=C[C@H](C)[C@H](CC[C@@H]3C[C@@H](O)CC(=O)O3)[C@H]21 (relative stereo) [LOVASTATIN, (1S-(1α(R*),3α,7β,8β(2S*,4S*)-8αβ)-2-methylbutanoic acid 1,2,3,7,8,8a-hexahydro-3,7-dimethyl-8-(2-(tetrahydro-4-hydroxy-6-oxo-2H-pyran-2-yl)ethyl)-1-naphthalenyl ester]
Chol index (fold reduction) (male Sprague-Dawley rats; dose 450, time 5 days): 2.39 fold reduction | reduction in cholesterol (male Sprague-Dawley rats): 2 fold

C[C@]12CC[C@@H]3c4ccc(OC(=O)c5ccccc5)cc4CC[C@H]3[C@@H]1CC[C@@H]2O [BETA-ESTRADIOL 3-BENZOATE]
Cholesterol Index (fold reduction) (male Sprague-Dawley rats; dose 2, time point 3 days): 2.0 fold reduction | SPS (livers of rats; dose 2 (mg/ml), time point 3 days): 46.4

C[C@]12CC[C@@H]3c4ccc(O)cc4CC[C@H]3[C@@H]1CC[C@@H]2O [BETA-ESTRADIOL, (17β)-estra-1,3,5(10)-triene-3,17-diol]
Cholesterol Index (fold reduction) (male Sprague-Dawley rats; dose 150, time point 3 days): 3.1 fold reduction | Cholesterol Index (fold reduction) (male Sprague-Dawley rats; dose 150, time point 5 days): 4.7 fold reduction | Chol index (fold reduction) (male Sprague-Dawley rats; dose 150, time 3 days): 3.21 fold reduction | Chol index (fold reduction) (male Sprague-Dawley rats; dose 150, time 5 days): 4.94 fold reduction | SPS (livers of rats; dose 150 (mg/ml), time point 1 day): 53 | SPS (livers of rats; dose 150 (mg/ml), time point 3 days): 63.4 | SPS (livers of rats; dose 150 (mg/ml), time point 5 days): 63.7

CCOC(=O)C(C)(C)Oc1ccc(Cl)cc1 [CLOFIBRATE, 2-(4-chlorophenoxy)-2-methylpropanoic acid ethyl ester]
Chol index (fold reduction) (male Sprague-Dawley rats; dose 500, time 3 days): 2.43 fold reduction

C[C@@H]1C[C@H]2[C@@H]3CCC4=CC(=O)C=C[C@]4(C)[C@@]3(F)[C@@H](O)C[C@]2(C)[C@@]1(O)C(=O)CO [DEXAMETHASONE]
Cholesterol Index (fold reduction) (male Sprague-Dawley rats; dose 1, time point 3 days): 0.9 fold reduction | SPS (livers of rats; dose 1 (mg/ml), time point 3 days): 49.5

CC/C(=C(/CC)c1ccc(O)cc1)c1ccc(O)cc1 [DIETHYLSTILBESTROL, 3,4-bis-(4-hydroxyphenyl)-3-hexene]
Cholesterol Index (fold reduction) (male Sprague-Dawley rats; dose 2.8, time point 3 days): 3.0 fold reduction | Cholesterol Index (fold reduction) (male Sprague-Dawley rats; dose 2.8, time point 5 days): 3.4 fold reduction | Chol index (fold reduction) (male Sprague-Dawley rats; dose 2.8, time 3 days): 3.10 fold reduction | Chol index (fold reduction) (male Sprague-Dawley rats; dose 2.8, time 5 days): 3.56 fold reduction | SPS (livers of rats; dose 2.8 (mg/ml), time point 1 day): 57.3 | SPS (livers of rats; dose 2.8 (mg/ml), time point 3 days): 71.2 | SPS (livers of rats; dose 2.8 (mg/ml), time point 5 days): 80.9 | SPS (livers of rats; dose 300 (mg/ml), time point 1 day): 59 | SPS (livers of rats; dose 300 (mg/ml), time point 3 days): 83.3 | SPS (livers of rats; dose 300 (mg/ml), time point 5 days): 91.1

C[C@]12CC[C@@H]3c4ccc(O)cc4CC[C@H]3[C@@H]1C[C@@H](O)[C@@H]2O [ESTRIOL, (16α, 17β)-estra-1,3,5(10)-triene-3,16,17-triol]
Cholesterol Index (fold reduction) (male Sprague-Dawley rats; dose 313, time point 3 days): 3.2 fold reduction | Cholesterol Index (fold reduction) (male Sprague-Dawley rats; dose 313, time point 5 days): 20.9 fold reduction | Chol index (fold reduction) (male Sprague-Dawley rats; dose 313, time 3 days): 3.30 fold reduction | Chol index (fold reduction) (male Sprague-Dawley rats; dose 313, time 5 days): 20.28 fold reduction | reduction in cholesterol (male Sprague-Dawley rats): 20 fold | SPS (livers of rats; dose 313 (mg/ml), time point 1 day): 51.5 | SPS (livers of rats; dose 313 (mg/ml), time point 3 days): 65.1 | SPS (livers of rats; dose 313 (mg/ml), time point 5 days): 83.4

OC(Cn1cncn1)(Cn1cncn1)c1ccc(F)cc1F [FLUCONAZOLE, α-(2,4-difluorophenyl)-α-(1H-1,2,4-triazol-1-ylmethyl)-1H-1,2,4-triazole-1-ethanol]
Cholesterol Index (fold reduction) (male Sprague-Dawley rats; dose 394, time point 5 days): 3.7 fold reduction | Chol index (fold reduction) (male Sprague-Dawley rats; dose 394, time 5 days): 3.94 fold reduction | SPS (livers of rats; dose 394 (mg/ml), time point 5 days): 59.7

C#C[C@]1(O)CC[C@H]2[C@@H]3CCC4=CC(=O)CC[C@@H]4[C@H]3CC[C@@]21C [NORETHINDRONE, (17α)-17-hydroxy-19-norpregn-4-en-20-yn-3-one]
Cholesterol Index (fold reduction) (male Sprague-Dawley rats; dose 375, time point 3 days): 3.5 fold reduction | Chol index (fold reduction) (male Sprague-Dawley rats; dose 375, time 3 days): 3.56 fold reduction | Chol index (fold reduction) (male Sprague-Dawley rats; dose 375, time 5 days): 3.06 fold reduction
